37 molecules from US20160311791A1, “NOVEL TRICYCLIC CALCIUM SENSING RECEPTOR ANTOGONISTS FOR THE TREATMENT OF OSTEOPOSOSIS” (MERCK SHARP & DOHME CORP., priority 2013, published 2016) can be followed below.

Each structure is given as a SMILES string. Bounds are passed on as bounds.

As usually defined, the IC50 is the midpoint of a concentration-inhibition curve.

The assay deals with T1, human CaSR (Homo sapiens, UniProt P41180).
T1 sequence (P41180 20-1078): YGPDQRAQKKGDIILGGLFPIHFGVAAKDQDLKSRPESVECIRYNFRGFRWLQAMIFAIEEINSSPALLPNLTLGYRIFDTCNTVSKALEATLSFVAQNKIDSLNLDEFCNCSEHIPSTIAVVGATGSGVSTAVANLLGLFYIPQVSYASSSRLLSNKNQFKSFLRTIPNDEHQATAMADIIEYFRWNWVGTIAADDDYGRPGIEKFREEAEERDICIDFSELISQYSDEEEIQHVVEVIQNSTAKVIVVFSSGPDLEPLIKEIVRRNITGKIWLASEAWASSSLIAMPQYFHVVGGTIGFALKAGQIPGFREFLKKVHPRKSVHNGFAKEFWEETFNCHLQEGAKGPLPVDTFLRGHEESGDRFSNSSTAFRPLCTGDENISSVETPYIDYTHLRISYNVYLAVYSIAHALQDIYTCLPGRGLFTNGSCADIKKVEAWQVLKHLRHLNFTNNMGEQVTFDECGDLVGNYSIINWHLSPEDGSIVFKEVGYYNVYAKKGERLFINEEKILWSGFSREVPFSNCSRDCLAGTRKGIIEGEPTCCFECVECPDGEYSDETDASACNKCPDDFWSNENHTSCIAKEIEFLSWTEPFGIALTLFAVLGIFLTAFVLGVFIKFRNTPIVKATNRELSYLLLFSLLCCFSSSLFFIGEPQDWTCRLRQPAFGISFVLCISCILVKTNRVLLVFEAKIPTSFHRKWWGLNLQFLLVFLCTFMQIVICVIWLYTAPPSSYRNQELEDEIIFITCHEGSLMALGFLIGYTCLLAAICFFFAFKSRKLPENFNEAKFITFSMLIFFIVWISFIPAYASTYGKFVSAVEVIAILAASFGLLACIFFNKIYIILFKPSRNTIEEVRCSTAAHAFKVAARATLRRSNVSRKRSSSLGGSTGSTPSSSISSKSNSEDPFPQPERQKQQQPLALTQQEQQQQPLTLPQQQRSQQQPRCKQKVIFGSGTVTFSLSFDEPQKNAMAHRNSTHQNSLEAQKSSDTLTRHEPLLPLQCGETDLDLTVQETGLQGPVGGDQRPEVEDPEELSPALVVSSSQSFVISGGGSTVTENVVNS
Description: CaSR FLIPR assay (calcilytic activity). The assay is classed as cell-based. The arrangement: expressed in transfected cells. The note with it: HEK293 cells stably expressing human recombinant CaSR; 1 mM CaCl2 agonist; Tables 1-24; read-out: FLIPR ASSAY IC50. The method, then: Procedures for CaSR FLIPR Assay
Calcilytic activity of the compound is measured in HEK293 cells stably expressing human recombinant CaSR (HEK-CaSR) using a FLIPR^TETRA device (Molecular Devices, Sunnyvale, Calif.) according to the manufacturer's directions. […] On the day of the assay, one vial of FLIPR Calcium 4 Assay Kit reagent Component A was equilibrated to room temperature. The content of the Component A vial was diluted by adding 10 ml dilution buffer (2×loading dye). The sample was mixed by vortexing (1-2 minutes) until the contents of the vial dissolved. The Component A vial mixture was diluted with 10 ml dilution buffer. Media was aspirated from the cells and 80 μl of loading buffer was added to each well. Plates were incubated for 1 hour at 37° C. and then placed at room temperature for 10 minutes. A two-stage method of generating 10-point serial dilutions was used. Compound was serially diluted in 100% DMSO (10 point, 3-fold dilution of each compound from 2 mM in 100% DMSO). 3 μl of serially diluted compound was transferred into a second assay microplate that contained 97 μl of TETRA dilution buffer (20 mM HEPES pH7.4, 1×HBSS without Ca and Mg, 0.4 mM CaCl2, 0.4 mM MgSO4, 0.5 mM MgCl2) to create the intermediate dilution plate. After reading the base line, the compounds in 0.5% DMSO in dilution buffer were added to their respective wells as 20 μl aliquots at 6×the final drug concentration. The fluorescence signals were then read. Subsequently, 20 μl of 3.6 mM of CaCl2 agonist (1 mM final concentration) was added to each well. For background, 20 μl of TETRA dilution buffer was added instead. The protocol consisted of a pre-addition read of 10 frames (10×1 frame/sec), a post 1st addition read of 100 frames (60×1 frame/sec, 40×1 frame/3 sec), pause 3 min, a post 2nd addition read of 100 frames (60×1 frame/sec, 40×1 frame/3 sec) on a FLIPR^TETRA Plate Reader.
As to `Cc1ccc([C@@H](C)OC[C@H](O)CNC(C)(C)CSc2ccc(F)cc2)c2c1O[C@@H]1[C@@H](C(=O)O)[C@H]21` [Example 8-32], the IC50 was determined as 1.41 µM.

As to `CSc1ccc(CC(C)(C)NC[C@@H](O)CO[C@H](C)c2ccc(C)c3c2[C@@H]2[C@H](O3)[C@H]2C(=O)O)cc1Cl` [Example 8-33], the IC50 is 0.03 µM.

Consider `CSc1ccc(CC(C)(C)NC[C@@H](O)CO[C@H](C)c2ccc(C)c3c2[C@@H]2[C@H](O3)[C@H]2C(=O)O)cc1C` [Example 8-34], for which the IC50 stood at 0.082 µM.

`Cc1ccc([C@@H](C)OC[C@H](O)CNC(C)(C)Cc2ccc3ccccc3c2)c2c1O[C@H]1[C@H](C(=O)O)[C@@H]21` [Example 9-1]: the IC50 was determined as 0.022 µM.

`Cc1ccc([C@@H](C)OC[C@H](O)CNC(C)(C)Cc2ccc(Cl)c(F)c2)c2c1O[C@H]1[C@H](C(=O)O)[C@@H]21` [Example 9-2]: the IC50 stood at 0.078 µM.

Take `Cc1ccc([C@@H](C)OC[C@H](O)CNC(C)(C)CC2Cc3ccccc3C2)c2c1O[C@H]1[C@H](C(=O)O)[C@@H]21` [Example 9-3]: the IC50 amounted to 0.046 µM.

For the molecule `Cc1ccc(CC(C)(C)NC[C@@H](O)CO[C@H](C)c2ccc(C)c3c2[C@H]2[C@@H](O3)[C@@H]2C(=O)O)cc1F` [Example 9-4], the IC50 came to 0.068 µM.

With `COc1ccc(CC(C)(C)NC[C@@H](O)CO[C@H](C)c2ccc(C)c3c2[C@H]2[C@@H](O3)[C@@H]2C(=O)O)cc1F` [Example 9-5], the IC50 was determined as 0.224 µM.

Take `Cc1ccc([C@@H](C)OC[C@H](O)CNC(C)(C)Cc2ccc3c(c2)CCC3)c2c1O[C@H]1[C@H](C(=O)O)[C@@H]21` [Example 9-6]: the half-maximal inhibitory concentration (IC50) was determined as 0.053 µM.

On to `Cc1ccc([C@@H](C)OC[C@H](O)CNC2(Cc3ccc4ccccc4c3)CC2)c2c1O[C@H]1[C@H](C(=O)O)[C@@H]21` [Example 9-7], for which the IC50 was 0.187 µM.

`Cc1ccc([C@@H](C)OC[C@H](O)CNC2(Cc3ccc4ccccc4c3)CCC2)c2c1O[C@H]1[C@H](C(=O)O)[C@@H]21` [Example 9-8]: the concentration for half-maximal inhibition (IC50) is above 10 µM.

Regarding `Cc1ccc([C@@H](C)OC[C@H](O)CNC(C)(C)Cc2ccc(Cl)cc2Cl)c2c1O[C@H]1[C@H](C(=O)O)[C@@H]21` [Example 9-9], the IC50 was determined as 0.077 µM.

With `Cc1ccc([C@@H](C)OC[C@H](O)CNC(C)(C)Cc2ccc(Cl)c(Cl)c2)c2c1O[C@H]1[C@H](C(=O)O)[C@@H]21` [Example 9-10], the IC50 is 0.042 µM.

With `CCOC(=O)[C@@H]1[C@H]2Oc3c(C)ccc([C@@H](C)OC[C@H](O)CNC(C)(C)Cc4ccc(SC)c(F)c4)c3[C@H]21` [Example 12-1], the IC50 came to 0.13 µM.

Take `C[C@@H](OC[C@H](O)CNC(C)(C)Cc1ccc2ccccc2c1)c1cccc2c1[C@@H]1[C@H](C2)[C@H]1C(=O)O` [Example 13-1]: the IC50 amounted to 0.028 µM.

For the molecule `C[C@@H](OC[C@H](O)CNC(C)(C)Cc1ccc2occc2c1)c1cccc2c1[C@@H]1[C@H](C2)[C@H]1C(=O)O` [Example 13-2], the IC50 was 0.047 µM.

As to `C[C@@H](OC[C@H](O)CNC(C)(C)Cc1ccc2c(c1)CCC2)c1cccc2c1[C@@H]1[C@H](C2)[C@H]1C(=O)O` [Example 13-3], the IC50 came to 0.088 µM.

For `C[C@@H](OC[C@H](O)CNC(C)(C)Cc1ccc2sccc2c1)c1cccc2c1[C@@H]1[C@H](C2)[C@H]1C(=O)O` [Example 13-4], the IC50 came to 0.036 µM.

Regarding `CSc1ccc(CC(C)(C)NC[C@@H](O)CO[C@H](C)c2cccc3c2[C@@H]2[C@H](C3)[C@H]2C(=O)O)cc1F` [Example 13-5], the IC50 was determined as 0.13 µM.

With `C[C@@H](OC[C@H](O)CNC(C)(C)Cc1ccc2ccccc2c1)c1cccc2c1[C@H]1[C@@H](C2)[C@@H]1C(=O)O` [Example 13-6], the IC50 turned out to be 4.9 µM.

With `C[C@@H](OC[C@H](O)CNC(C)(C)Cc1ccc2ccccc2c1)c1cccc2c1C[C@@H]1[C@@H](C(=O)O)[C@H]21` [Example 14-1], the IC50 came to 0.27 µM.

For the molecule `C[C@@H](OC[C@H](O)CNC(C)(C)Cc1ccc2ccccc2c1)c1cccc2c1C[C@H]1[C@H](C(=O)O)[C@@H]21` [Example 14-2], the IC50 worked out at 0.15 µM.

As to `C[C@@H](OC[C@H](O)CNC(C)(C)Cc1ccc2ccccc2c1)c1c(Cl)ccc2c1[C@@H]1[C@H](O2)[C@H]1C(=O)O` [Example 15-1], the half-inhibitory concentration (IC50) is 0.017 µM.

Take `Cc1cc(Cl)c([C@@H](C)OC[C@H](O)CNC(C)(C)Cc2ccc3ccccc3c2)c2c1O[C@@H]1[C@@H](C(=O)O)[C@H]21` [Example 16-1]: the IC50 came out at 0.009 µM.

As to `Cc1cc(Cl)c([C@@H](C)OC[C@H](O)CNC(C)(C)Cc2ccc3occc3c2)c2c1O[C@@H]1[C@@H](C(=O)O)[C@H]21` [Example 16-2], the IC50 is 0.017 µM.

As for `Cc1cc(Cl)c([C@@H](C)OC[C@H](O)CNC(C)(C)Cc2ccc3sccc3c2)c2c1O[C@@H]1[C@@H](C(=O)O)[C@H]21` [Example 16-3], the IC50 came out at 0.014 µM.

With `Cc1cc(Cl)c([C@@H](C)OC[C@H](O)CNC(C)(C)Cc2ccc3c(c2)OCCO3)c2c1O[C@@H]1[C@@H](C(=O)O)[C@H]21` [Example 16-4], the IC50 was found to be 0.041 µM.

As to `COc1ccc(CC(C)(C)NC[C@@H](O)CO[C@H](C)c2c(Cl)cc(C)c3c2[C@@H]2[C@H](O3)[C@H]2C(=O)O)c(F)c1` [Example 16-5], the IC50 was 0.024 µM.

For the molecule `CSc1ccc(CC(C)(C)NC[C@@H](O)CO[C@H](C)c2c(Cl)cc(C)c3c2[C@@H]2[C@H](O3)[C@H]2C(=O)O)cc1F` [Example 16-6], the half-inhibitory concentration (IC50) amounted to 0.017 µM.

On to `C[C@@H](OC[C@H](O)CNC(C)(C)Cc1ccc2ccccc2c1)c1ccc(F)c2c1C1C(O2)C1C(=O)O` (stereo partly shown) [Example 17-1], for which the IC50 amounted to 0.026 µM.

Take `C[C@@H](OC[C@H](O)CNC(C)(C)Cc1ccc2ccccc2c1)c1ccc(Cl)c2c1C1C(O2)C1C(=O)O` (stereo partly shown) [Example 18-1]: the concentration for half-maximal inhibition (IC50) came out at 0.04 µM.

On to `C[C@@H](OC[C@H](O)CNC(C)(C)Cc1ccc2ccccc2c1)c1cc(F)cc2c1O[C@@H]1[C@@H](C(=O)O)[C@H]21` [Example 19-1], for which the 50% inhibitory concentration (IC50) was determined as 0.176 µM.

In the case of `C[C@@H](OC[C@H](O)CNC(C)(C)Cc1ccc2ccccc2c1)c1cc(Cl)cc2c1O[C@@H]1[C@@H](C(=O)O)[C@H]21` [Example 20-1], the IC50 came to 0.02 µM.

As for `CC(OC[C@H](O)CNC(C)(C)Cc1ccc2ccccc2c1)c1ccc2c(c1)C1C(O2)C1C(=O)O` (stereo partly shown) [Example 21-1], the IC50 came to 2.72 µM.

For the molecule `CC(C)(Cc1ccc2ccccc2c1)NC[C@@H](O)COc1ccc2c(c1)C1C(O2)C1C(=O)O` (stereo partly shown) [Example 22-1], the IC50 was 3.55 µM.

As for `CC(OC[C@H](O)CNC(C)(C)Cc1ccc2ccccc2c1)c1cccc2c1C1C(S2)C1C(=O)O` (stereo partly shown) [Example 23-1], the IC50 amounted to 0.042 µM.

Take `Cc1ccc(C(C)OC[C@H](O)CNC(C)(C)Cc2ccc3ccccc3c2)c2c1OC(C)(C)C1C(C(=O)O)C21` (stereo partly shown) [Example 24-1]: the IC50 amounted to 0.106 µM.
